System: Hippocampusschnitt
Assay: Hippocampal slice: epileptic discharges in magnesium-free medium (stimulation of Schaffer collaterals, extracellular recording at CA1 pyramidal cells)
Type: cell-based
Details: addition of 100 mmol, Abb. 1c
Source text: Als Testsystem für den Nachweis der zytoprotektiven Eigenschaften der Benzomorphanderivate dient der Hippocampusschnitt. Über Mikroelektroden werden die Schäfferkollaterale des sich in einer Perfusionskammer befindenden Hippocampusschnittes stimuliert und die auftretenden Summenpotentiale extrazellulär an den Pyramidenzellen der CAI-Region abgeleitet [H.L. Haas, B. Schaerer und M. Vosmansky, J. Neuroscience Meth. 1 (1979) 323].
Eine typische Stimulation in einem magnesiumhaltigem Medium ist in Abb. 1a dargestellt. - Abb. 1b zeigt multiple epileptische Entladungen in einem magnesiumfreien Medium. Diese Entladungen werden - wie Abb. 1c belegt - beispielsweise durch Zugabe von […] (-)-(1R,5R,9R)-N-(2-Furylmethyl)-5,9-dimethyl-2′- hydroxy-6,7-benzomorphan gehemmt.

C[C@H]1[C@H]2Cc3ccc(O)cc3[C@]1(C)CCN2Cc1ccco1 [(-)-(1R,5R,9R)-N-(2-Furylmethyl)-5,9-dimethyl-2′-hydroxy-6,7-benzomorphan]
multiple epileptische Entladungen: gehemmt

Source: patent EP0370499A2, “Use of benzomorphanes in cytoprotection” (BOEHRINGER INGELHEIM KG, priority 1988, dated 1990)
